Tested on: hairless mice
Assay: Evaluation of wrinkle-reducing effect using photoaging model (UVB-irradiated hairless mice, replica wrinkle score)
Assay type: in vivo
Conditions: 0.5% by mass in ethanol (lotion), 100 μL once a day for 8 weeks on dorsal portions after 10 weeks of UVB irradiation; replicas scored visually 1 to 6; vs ethanol control
Experimental: A wrinkle-reducing effect of Cosmetic 1 above was evaluated in a test using a photoaging model.
A total of ten hairless mice, which were six-week-old at the time of the start of a test, were used and divided into two groups each consisting of five mice, i.e., a control group (ethanol solvent administration group) and a sample administration group. The dorsal portions of the hairless mice were irradiated with UVB at a frequency of once a day and three times a week for 10 consecutive weeks to induce photoaging. The UVB irradiation amount was set to 50 mJ/cm^2 for the first week and to 100 mJ/cm^2 on week 2 or later.
In the sample administration group, Cosmetic 1 above was administered to the dorsal portions of the hairless mice. Cosmetic 1 started to be administered to the dorsal portions of the hairless mice on the following day after the completion of the UVB irradiation for 10 weeks, and administered at a dose of 100 μL once a day for 8 weeks. In the control group, the same treatments were performed as those in sample administration group except that ethanol was administered in place of Cosmetic 1 (Lotion 1) in Table 1. […] The scoring operation was performed by three measurers separately and evaluated visually with scores of 1 to 6 at intervals of 0.5. An average value of the results was calculated.

CSCC(NC(=O)c1ccc(C)cc1)C(=O)O (stereo not shown) [Compound 2, [S-methyl-N-toluyl]cysteine]
wrinkle-reducing effect (wrinkle score): excellent wrinkle-reducing effects

From patent publication US8835498B2, “Anti-wrinkle agents” (Pola Chemical Industries Inc., priority 2008, dated 2014)
